A word on the IC50: it is the concentration that inhibits the measured activity by half.

Data set [1] can be described thus: Hydroxy radical scavenging activity (H2O2-(Fe^2+-DTPA), DMPO spin trapping, ESR). In kind it is biochemical. Particulars: pH 7.3, read-out: .OH scavenging activity IC50. The source says: Activity of PQQ esters to scavenge hydroxy radical (·OH) produced in the system of H2 O2 --(Fe^2+ -DTPA) was examined by spin trapping method [using 5,5-dimethyl-1-pyrroline-N-oxide (hereinafter referred to as "DMPO") as a spin trapping agent] where electron spin resonance (hereinafter referred to as "ESR") was used. DTPA means diethylenetriamine-pentaacetic acid.
H2 O2 +Fe^2 -DTPA complex→·OH+OH^-
The following reagents were successively put in a test tube and stirred after addition of H2 O2 6 to initiate the reaction and the reaction mixture was transferred to a quartz cell used for measurement of ESR.
Hydroxy radical scavenging activity of OPQ and esters thereof was examined in the same manner as in Example 3.

A short description of data set [2]: Superoxide scavenging activity (hypoxanthine-xanthine oxidase, DMPO spin trapping, ESR). Particulars: pH 7.3, read-out: O2^- scavenging activity IC50. In kind it is biochemical. The text has this:
Activity of PQQ esters to scavenge superoxide (O2^-) produced in the system of hypoxanthinexanthine oxidase was examined by spin trapping method [using 5,5-dimethyl-l-pyrroline-N-oxide (hereinafter referred to as "DMPO") as a spin trapping agent] where electron spin resonance (hereinafter referred to as "ESR") was used.
Hypoxanthine+2O2 →2O2^- +uric acid (xanthine oxidase)
The following reagents were successively put in a test tube and stirred after addition of the hypoxanthine 7 to initiate the reaction and the reaction mixture was transferred to a quartz cell used for measurement of ESR.
Superoxide scavenging activity of OPQ and esters thereof was examined in the same manner as in Example 1.

Data set [3] has as its system mice. Particulars: mouse, in vivo, ip. Here is the method:
One group consisted of 8 mice. For administration, PQQ·2Na and OPQ and esters thereof were dissolved in physiological saline and PQQ trimethyl ester and PQQ triallyl ester were suspended in 1% Tween 80-containing physiological saline, respectively.
PQQ·2Na, PQQ trimethyl ester, PQQ triallyl ester and OPQ and esters thereof were intraperitoneally administered to mice and they were bred in the same manner as in the above acute toxicity test. Urine of the mice was taken every day and glucose concentration was measured using clinical examination reagent (trademark: […] 2 manufactured by Miles.Sankyo Co.).

Data set [4] concerns mice. Description: Kidney Toxicity Determined by Blood Examination (1). It counts as in vivo. The following applies: mouse serum. On the procedure:
After lapse of one day from the administration, the mice were fasted (with feeding only water) and then after 18 hours, blood was collected and serum was obtained therefrom. Glucose, urea nitrogen and creatinine in the serum were examined by clinical examination reagent (trademark: FUJI DRYCHEMSLIDE manufactured by Fuji Photo Film Co., Ltd.).

For data set [5] the following is noted: not told.
Protocol: Permeability of various compounds through capsule of crystal bovine lens was examined in accordance with the method mentioned in "Crystal Lens and Biochemical Mechanism thereof" (pages 436-440) edited by Shuzo Iwata (Medical Aoi Publisher). Each compound dissolved in 10 mM HEPES buffer (containing 1% DMSO in the case of PQQ triesters) was put in an apparatus for measurement of membrane permeation constant and left to stand for 16 hours at 35° C. and then amount of the compound which migrated was measured by ultraviolet absorption (243 nm for PQQ·2Na and 255 nm for PQQ esters) to obtain membrane permeation constant.
In data set [6] the test system is Hydrocortisone-Induced Cataract of Hen's Eggs. Description: Effect on hydrocortisone-induced cataract of hen's eggs. In kind it is in vivo, white leghorn (hen's eggs). Particulars: 1 μmole at 3, 10 and 20 h after hydrocortisone; lens at 48 h. Here is the method: Fertilized eggs of white leghorn were incubated in an incubator at a temperature of 37° C. and 70% in humidity. The day on which the incubation was started was taken to be one day old. […] eggs of 15 day old were prepared and divided into 7 groups, each of which included 5 eggs (A-G). A small hole was bored through the eggshell above air chamber of the eggs of groups B-G and 0.25 μmole (as 0.2 ml solution) of hydrocortisone sodium succinate was administered into the air chamber through the hole and then, the hole was sealed with a cellophane tape. To The eggs of groups C-G was administered 1 μmole of following compounds after 3, 10 and 20 hours from administration of hydrocortisone sodium succinate. That is, 0.2 ml of a solution of PQQ·2Na in distilled water was administered to the eggs of group C, 0.2 ml of a suspension of PQQ trimethyl ester in 1% Tween 80 solution was administered to the eggs of group D, 0.2 ml of a suspension of triallyl ester in 1% Tween 80 solution was administered to the eggs of group E, 0.2 ml of a solution of OPQ in 10 mM NaCO3 solution was administered to the eggs of group F, and 0.2 ml of a solution of methyl OPQ in 10 mM NaCO3 solution was administered to the eggs of group G.
Crystal lens was taken out after 48 hours from administration of hydrocortisone sodium succinate and degree of cataract was judged by the criteria according to the Nishigori et al method (Nishigori et al, "Investigative Ophthalmology & Visual Science", Vol. 25, page 1051, 1984).
5 The whole nucleus was hazed in white.

Read-outs that look alike come from different tables or passages of the source.

On to `O=C(O)c1cc(C(=O)O)c2c(n1)c1nc(Cc3ccccc3)oc1c1cc(C(=O)O)[nH]c12` [Benzyl OPQ, benzyl OPQ], for which the half-maximal inhibitory concentration (IC50) in data set [1] (Example 4, Table 9) worked out at 211 µM; in data set [2] (Example 2, Table 7), 3.01 µM. For the same compound, the glucose in urine result with mice [3] (20 mg/kg), with mice [3] (40 mg/kg), in the data set with mice [3] (80 mg/kg), in the data set with mice [3] (160 mg/kg) and in the data set on mice [3] (200 mg/kg) was “-” throughout. In addition, the Creatinine was determined as 0.68 ± 0.05 mg/dL with mice [4] (40 mg/kg), 0.68 ± 0.04 mg/dL in the data set with mice [4] (80 mg/kg), 0.68 ± 0.08 mg/dL in the data set on mice [4] (160 mg/kg) and 0.73 ± 0.05 mg/dL with mice [4] (200 mg/kg). Besides, the Glucose was found to be 90 ± 24 mg/dL with mice [4] (40 mg/kg), 87 ± 17 mg/dL in the data set with mice [4] (80 mg/kg), 87 ± 21 mg/dL with mice [4] (160 mg/kg) and 84 ± 18 mg/dL in the data set with mice [4] (200 mg/kg). Also, the Urea nitrogen with mice [4] (40 mg/kg) came to 23 ± 3 mg/dL; in the data set on mice [4] (80 mg/kg), 23 ± 2 mg/dL; with mice [4] (160 mg/kg) it was 26 ± 3 mg/dL; with mice [4] (200 mg/kg) it was 25 ± 3 mg/dL.

Consider `CC(C)Cc1nc2c3nc(C(=O)O)cc(C(=O)O)c3c3[nH]c(C(=O)O)cc3c2o1` [2-Methylpropyl OPQ, 2-methylpropyl OPQ (R=CH2 CH(CH3)2)], for which the IC50 in data set [1] (Example 4, Table 9) was found to be 421 µM; in data set [2] (Example 2, Table 7), 4.88 µM.

Consider `CCOC(=O)c1cc(C(=O)OCC)c2c(n1)C(=O)C(=O)c1cc(C(=O)OCC)[nH]c1-2` [PQQ triethyl ester], for which the Membrane permeation constant in data set [5] (bovine, 960 min) was 1.22 ± 0.37 10 ^-7 cm^2 · sec^-1. In addition, in data set [5], the “membrane permeation constant relative to that of PQQ.2Na” value is “about twice”.

For the compound PQQ dimethyl ester, the IC50 in data set [2] (Example 1, Table 6) stood at 0.0106 µM.

For the compound `Cc1nc2c3nc(C(=O)O)cc(C(=O)O)c3c3[nH]c(C(=O)O)cc3c2o1` [Methyl OPQ, methyl OPQ (R=CH3)], in data set [6], the “Judgement 1 (No haze was seen in crystal lens), eggs” value is listed as 1/5; the “Judgement 3 (Clear ring of white haze was seen in crystal lens), eggs” value is recorded as 2/5; the “Judgement 4 ~ 5 (white haze of pinhole size in nucleus ~ whole nucleus hazed in white), eggs” value was 2/5. For the same compound, in data set [1] (Example 4, Table 9), the IC50 was found to be 153 µM. In data set [2] (Example 2, Table 7), the half-maximal inhibitory concentration (IC50) is 1.64 µM.

With `C=CCOC(=O)c1cc(C(=O)OCC=C)c2c(n1)c1ncoc1c1cc(C(=O)OCC=C)[nH]c12` [OPQ triallyl ester], in data set [2] (Example 2, Table 7), the IC50 amounted to 2.39 µM.

Take `CSCCc1nc2c3nc(C(=O)O)cc(C(=O)O)c3c3[nH]c(C(=O)O)cc3c2o1` [2-Methylthioethyl OPQ, 2-methylthioethyl OPQ (R= CH2 CH2 SCH3)]: the IC50 in data set [1] (Example 4, Table 9) is 200 µM; in data set [2] (Example 2, Table 7) it was 3.94 µM. Moreover, the glucose in urine result in the data set with mice [3] (20 mg/kg), in the data set with mice [3] (40 mg/kg), in the data set on mice [3] (80 mg/kg), in the data set with mice [3] (160 mg/kg) and in the data set with mice [3] (200 mg/kg) was “-” throughout. Besides, the Creatinine came out at 0.76 ± 0.05 mg/dL in the data set on mice [4] (40 mg/kg), 0.68 ± 0.08 mg/dL in the data set with mice [4] (80 mg/kg), 0.64 ± 0.05 mg/dL with mice [4] (160 mg/kg) and 0.73 ± 0.06 mg/dL in the data set with mice [4] (200 mg/kg). Moreover, the Glucose in the data set with mice [4] (40 mg/kg) was determined as 96 ± 26 mg/dL; in the data set with mice [4] (80 mg/kg), 88 ± 29 mg/dL; in the data set on mice [4] (160 mg/kg) it was 97 ± 22 mg/dL; with mice [4] (200 mg/kg), 72 ± 16 mg/dL. Besides, the Urea nitrogen with mice [4] (40 mg/kg) came out at 26 ± 4 mg/dL; in the data set on mice [4] (80 mg/kg), 26 ± 5 mg/dL; with mice [4] (160 mg/kg), 26 ± 3 mg/dL; in the data set on mice [4] (200 mg/kg), 26 ± 2 mg/dL.

On to PQQ monomethyl ester, for which the IC50 in data set [2] (Example 1, Table 6) was found to be 0.0609 µM.

Turning to `O=C(O)c1cc(C(=O)O)c2c(n1)c1nc(Cc3ccc(O)cc3)oc1c1cc(C(=O)O)[nH]c12` [4-Hydroxyphenylmethyl OPQ, 4-hydroxyphenylmethyl OPQ], the IC50 was 314 µM in data set [1] (Example 4, Table 9) and 4.12 µM in data set [2] (Example 2, Table 7).

Regarding `CCC(C)c1nc2c3nc(C(=O)O)cc(C(=O)O)c3c3[nH]c(C(=O)O)cc3c2o1` (stereo not drawn) [1-Methylpropyl OPQ, 1-methylpropyl OPQ (R=CH(CH3)CH2 CH3)], the 50% inhibitory concentration (IC50) in data set [1] (Example 4, Table 9) came to 252 µM; in data set [2] (Example 2, Table 7), 3.53 µM. In addition, the glucose in urine result in the data set with mice [3] (20 mg/kg), in the data set on mice [3] (40 mg/kg), with mice [3] (80 mg/kg), with mice [3] (160 mg/kg) and with mice [3] (200 mg/kg) was “-” in each case. Further, the Creatinine with mice [4] (40 mg/kg) amounted to 0.80 ± 0.08 mg/dL; with mice [4] (80 mg/kg), 0.78 ± 0.04 mg/dL; with mice [4] (160 mg/kg), 0.78 ± 0.04 mg/dL; in the data set with mice [4] (200 mg/kg) it was 0.83 ± 0.17 mg/dL. Further, the Glucose in the data set on mice [4] (40 mg/kg) worked out at 87 ± 20 mg/dL; with mice [4] (80 mg/kg), 104 ± 19 mg/dL; in the data set with mice [4] (160 mg/kg), 87 ± 22 mg/dL; in the data set on mice [4] (200 mg/kg) it was 66 ± 11 mg/dL. Moreover, the Urea nitrogen came out at 26 ± 1 mg/dL with mice [4] (40 mg/kg), 22 ± 3 mg/dL in the data set with mice [4] (80 mg/kg), 27 ± 4 mg/dL in the data set on mice [4] (160 mg/kg) and 27 ± 6 mg/dL with mice [4] (200 mg/kg).

On to `O=C(O)c1cc(C(=O)O)c2c(n1)c1nc(CO)oc1c1cc(C(=O)O)[nH]c12` [Hydroxymethyl OPQ, hydroxymethyl OPQ (R=CH2 OH)], for which the IC50 in data set [1] (Example 4, Table 9) is 305 µM; in data set [2] (Example 2, Table 7), 3.52 µM.

With `NC(=O)CCc1nc2c3nc(C(=O)O)cc(C(=O)O)c3c3[nH]c(C(=O)O)cc3c2o1` [2-Carbamoylethyl OPQ, 2-carbamoylethyl OPQ (R=CH2 CH2 CONH2)], the half-inhibitory concentration (IC50) amounted to 194 µM in data set [1] (Example 4, Table 9) and 3.2 µM in data set [2] (Example 2, Table 7).

In the case of `O=C(OCc1ccccc1)c1cc(C(=O)OCc2ccccc2)c2c(n1)C(=O)C(=O)c1cc(C(=O)OCc3ccccc3)[nH]c1-2` [PQQ tribenzyl ester], the IC50 in data set [1] (Example 3, Table 8) came to 31 µM; in data set [2] (Example 1, Table 6), 0.0769 µM.

Regarding `O=C(O)CCc1nc2c3nc(C(=O)O)cc(C(=O)O)c3c3[nH]c(C(=O)O)cc3c2o1` [2-Carboxyethyl OPQ, 2-carboxyethyl OPQ (R=CH2 CH2 CO2 H)], the IC50 came out at 110 µM in data set [1] (Example 4, Table 9) and 2.96 µM in data set [2] (Example 2, Table 7).

With `CC(C)c1nc2c3nc(C(=O)O)cc(C(=O)O)c3c3[nH]c(C(=O)O)cc3c2o1` [1-Methylethyl OPQ, 1-methylethyl OPQ (R=CH(CH3)2)], the IC50 in data set [1] (Example 4, Table 9) is 200 µM; in data set [2] (Example 2, Table 7), 3.14 µM.

The values above are taken from US5369112A, “Method of treating cataracts caused by active oxygen” (Mitsubishi Gas Chemical Company, Inc., priority 1991, dated 1994).
